A short description of data set [1]: AUC (0 to infinity) in Sprague-Dawley rat at 10 mg/kg, iv. Format: ADME, organism-based. On the set-up: time infinity, dose 10 mg/kg, route intravenous. The note with it: plasma.
Data set [2] in a line: AUC (0 to infinity) in Sprague-Dawley rat at 10 mg/kg, po. The note with it: plasma. Format: ADME, organism-based. On the set-up: time infinity, dose 10 mg/kg, route oral.
The nature of data set [3]: Clearance in Sprague-Dawley rat at 10 mg/kg, iv. The settings on record: in vivo. On the set-up: dose 10 mg/kg, route intravenous. The data set is classed as ADME, organism-based.
A short description of data set [4]: Half life in Sprague-Dawley rat at 10 mg/kg, iv. Format: ADME, organism-based. Further details: dose 10 mg/kg, route intravenous. The settings on record: in vivo.
The nature of data set [5]: Half life in Sprague-Dawley rat at 10 mg/kg, po. The data set is classed as ADME, organism-based. Further details: dose 10 mg/kg, route oral. The note with it: in vivo.
Data set [6] is described as follows: Tmax in Sprague-Dawley rat at 10 mg/kg, po. The note with it: in vivo. The data set is classed as ADME, organism-based. Further details: dose 10 mg/kg, route oral.
Data set [7] can be described thus: Oral bioavailability in Sprague-Dawley rat at 10 mg/kg. Format: ADME, organism-based. The note with it: in vivo.
A short description of data set [8]: Permeability from apical to basal side across human Caco2 cells. The data set is classed as ADME, cell-based. The note with it: Caco-2, read-out: permeability.
A short description of data set [9]: Permeability from basal to apical side across human Caco2 cells. Format: ADME, cell-based. The note with it: Caco-2, read-out: permeability. For orientation: Caco-2 cells form a polarised layer with tight junctions and transporters.
Data set [10] deals with Plasma. Nature of the data set: Half life in rat plasma assessed as < 50% of prodrug is remaining. The data set is classed as ADME, cell-free.
Data set [11] deals with Plasma. Description: Half life in human plasma assessed as around 50% of prodrug is remaining. Format: ADME, cell-free.
Data set [12] can be described thus: Half life in buffer at pH 4 assessed as prodrug conversion. Format: physicochemical.
The nature of data set [13]: Half life in buffer at pH 6 assessed as prodrug conversion. The data set is classed as physicochemical.
Data set [14] can be described thus: Half life in buffer at pH 7.4 assessed as prodrug conversion. Format: physicochemical.
Data set [15] can be described thus: Half life in buffer at pH 9 assessed as prodrug conversion. The data set is classed as physicochemical.
Data set [16] deals with Plasma. Nature of the data set: Half life in rat plasma assessed as < 10% of prodrug is remaining. The data set is classed as ADME, cell-free.
In data set [17] the test system is Plasma. Description: Half life in human plasma assessed as < 50% of prodrug is remaining. The data set is classed as ADME, cell-free.
Data set [18] deals with Rattus norvegicus. Nature of the data set: AUC (0 to infinity) in Sprague-Dawley rat assessed as VX166 level in plasma at 10 mg/kg, po. The settings on record: in vivo. Further details: time infinity, dose 10 mg/kg, route oral. Format: ADME, organism-based.
For data set [19], the system named is Rattus norvegicus. Nature of the data set: Half life in Sprague-Dawley rat assessed as prodrug conversion to VX166 at 10 mg/kg, po. The data set is classed as ADME, organism-based. Further details: dose 10 mg/kg, route oral. The settings on record: in vivo.
Data set [20] has as its system Rattus norvegicus. Description: Tmax in Sprague-Dawley rat assessed as VX166 level at 10 mg/kg, po. Format: ADME, organism-based. On the set-up: dose 10 mg/kg, route oral. The settings on record: in vivo.
The subject of data set [21] is Rattus norvegicus. Nature of the data set: Oral bioavailability in Sprague-Dawley rat assessed as VX166 level at 10 mg/kg. The data set is classed as ADME, organism-based. The note with it: in vivo.

Structures are written as SMILES.

Broadly, the AUC(0-inf) is total exposure, with the tail of the curve extrapolated. A higher AUC(0-inf) goes with high exposure. One may read the clearance as the rate of elimination divided by the concentration. A higher clearance goes with efficient removal. A word on the half-life: it is the time needed for the level to fall by half in the phase considered. Low values mean rapid decline, high ones slow decline. The term Tmax denotes the time at which the peak concentration occurs. One may read the bioavailability as dose-corrected exposure relative to a reference, in per cent. With `CC[C@@H](C(=O)N[C@@H](CC(=O)O)C(=O)COc1c(F)c(F)cc(F)c1F)n1cccc(NC(=O)OC)c1=O`, the area under the curve AUC(0-inf) in data set [1] stood at 6160 ng·h/mL; in data set [2] it was 860 ng·h/mL. In addition, the clearance in [3] was 22.3 mL/min/kg. The half-life in data set [4] was 31.8 min; in [5] it was 91.8 min. In addition, the Tmax in [6] was 19.8 min. In [7], this compound had a bioavailability of 14%.
Turning to `C[C@H](NC(=O)C(=O)Nc1ccccc1C(C)(C)C)C1=N[C@H]2CC(=O)O[C@@]2(COc2c(F)c(F)cc(F)c2F)O1`, the Papp A→B in data set [8] was determined as 0.5 ×10⁻⁶ cm/s. Besides, the Papp B→A in [9] was found to be 10 ×10⁻⁶ cm/s. The t1/2 in data set [10] was under 1 min; in data set [11], 1 min; in data set [12], 72 min; in data set [13], 1490 min; in data set [14], 1780 min; in [15], 438 min.
Usually AUC stands for concentration integrated over time. As to `CC[C@@H](C1=N[C@H]2CC(=O)O[C@@]2(COc2c(F)c(F)cc(F)c2F)O1)n1cccc(NC(=O)OC)c1=O`, the t1/2 in [16] is under 1 min; in [17], under 1 min; in data set [12] it was 108 min; in data set [13], 522 min; in data set [14] it was 192 min; in [15], 42 min. In addition, in data set [19], the t1/2 came to 58.2 min. For the same compound, the AUC in data set [18] is 1660 ng·h/mL. In data set [20], the Tmax worked out at 37.8 min. Besides, the F in [21] is reported as 27%.
For `O=C1C[C@@H]2N=C(c3cccc4ccccc34)O[C@]2(CF)O1`, the t1/2 was under 1 min in data set [16]; 1 min in data set [11]; 864 min in [12]; 792 min in data set [13]; 240 min in [14]; 48 min in data set [15].
For the compound `C[C@H](NC(=O)C(=O)Nc1ccccc1C(C)(C)C)C(=O)N[C@@H](CC(=O)O)C(=O)COc1c(F)c(F)cc(F)c1F` [EMRICASAN], the Papp A→B in data set [8] was found to be 0.5 ×10⁻⁶ cm/s. In addition, the Papp B→A in data set [9] is 10 ×10⁻⁶ cm/s.

The values above are taken from ChEMBL document CHEMBL1933015, “Synthesis and evaluation of novel prodrugs of caspase inhibitors” (Bioorg Med Chem Lett, 2012).
